Measured values as given in PMC9455983 (International Journal of Molecular Sciences, 2022).
Like-named read-outs stand apart in the source and are kept apart here.

Key:
[1] = target: T1, mu-opioid receptor (MOR) (Rattus norvegicus, UniProt P33535); experiment: MOR radioligand competition binding assay ([3H]-DAMGO); settings: Mu screening results
T1 construct: Rat cortices were homogenized using 50 mM Tris, pH 7.4, and centrifuged at 16,500 rpm for 10 min; from tissue; host or cells: rat cortex membranes
Summary of the method: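 Competition for 2 nM [3H]-DAMGO binding was measured in rat cortex membrane suspension (50 mM Tris, pH 7.4, plus 2 mg/mL bovine serum). After filtration through GF/B filters pre-soaked in BSA, filter radioactivity was counted. Data are two duplicate experiments reported as mean ± SD.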

[2] = system: C57BL/6J mice; experiment: Acute antinociceptive tolerance determination; settings: i.c.v.
[3] = system: C57BL/6J mice; experiment: Respiration rate in CLAMS/Oxymax system; format: in vivo, mouse; settings: i.c.v.
Procedure: Respiration rates (in breaths per minute) and animal locomotive activity (as ambulations) were assessed using the Oxymax/CLAMS system (Columbus Instruments, Columbus, OH), as described previously. Mice were habituated to their individual sealed housing chambers for 60 min before testing. Mice were administered 1968-22 (0.3–100 nmol, i.c.v.), morphine (100 nmol, i.c.v.), or vehicle, as indicated, and five min later confined to the CLAMS testing chambers. Pressure monitoring within the sealed chambers measured frequency of respiration. Infrared beams located in the floor measured locomotion as number of beam breaks. Respiration and locomotive data were averaged over 20 min periods for 120 min post-injection of the test compound. Data are presented as % vehicle response ± SEM, ambulation or breaths per minute.

[4] = system: C57BL/6J mice; experiment: 55 °C warm-water tail-withdrawal assay (antinociception); format: in vivo, mouse
Procedure: For intracerebroventricular (i.c.v.) administration, the 1968-series compounds were dissolved in dimethyl sulfoxide (DMSO), followed by the addition of sterile saline (0.9%) so that the final vehicle was 50% DMSO and 50% saline, and the i.c.v. injections were performed as described previously. For per os (p.o.) administration, 1968-4 and 1968-22 were administered in 10% Ethanol/10%Tween-80/80% 0.9% saline. All solutions for animal administration were prepared fresh daily.
Antinociception was calculated according to the following formula: % antinociception = 100 × (test latency − control latency)/(15 − control latency). Tail-withdrawal data points are the means of 8–16 mice, unless otherwise indicated, with SEM shown by error bars.
All dose–response lines were analyzed by regression, and ED50 (effective dose producing 50% antinociception) values and 95% confidence intervals (C.I.) were determined using individual data points from graded dose–response curves with Prism 8.0 software (GraphPad, La Jolla, CA, USA). Percent antinociception was used to determine within group effects and to allow comparison to baseline latency in tail-withdrawal experiments. The statistical significance of differences between ED50 values was determined by evaluation of the ED50 value shift via nonlinear regression modeling with Prism software. Significant differences in behavioral data were analyzed by ANOVA (one-way or two-way with repeated measures (RM), as appropriate). Significant results were further analyzed with Sidak’s, Tukey’s, or Dunnett’s multiple comparison post hoc tests, as appropriate. Data for conditioned place preference experiments were analyzed by two-way RM ANOVA, with analyses examining the main effect of the conditioned place preference phase (e.g., pre- or post-conditioning) and the interaction of drug pretreatment. Significant effects were further analyzed using Sidak’s HSD post hoc testing. All data are presented as mean ± SEM, with significance set at p < 0.05.

[5] = LC-MS/MS analysis of blood and perfused brain after i.v. administration; format: in vivo, mouse
Procedure: To assess the stability of 1968-22 in plasma and evaluate CNS penetration, blood and perfused brains were collected from mice 5, 15, and 30 min after (i.v.) administration of the bis-cyclic guanidine (10 mg/kg, i.v.).
Figure 5 LC-MS/MS analysis of 1968-22 ([…].) in blood and brain samples isolated from treated mice over 30 min. Control mice received vehicle (10% Ethanol/10%Tween-80/80% 0.9% saline) and were harvested immediately. Points are mean AUC ± SEM for the summed ion extracted chromatographs of 1968-22 from three mice/time points.

[6] = system: C57BL/6J mice; experiment: Conditioned place preference / aversion; format: in vivo, mouse; settings: 0.1, 1 or 10 nmol, i.c.v.; two days of place conditioning
[7] = target: T2, kappa-opioid receptor (KOR) (Cavia porcellus, UniProt P41144); experiment: KOR radioligand competition binding assay ([3H]U69,593); set-up: species or system guinea pig; settings: Kappa screening results
T2 construct: Guinea pig cortices and cerebella were homogenized using 50 mM Tris, pH 7.4; from tissue; host or cells: guinea pig cortex and cerebellum membranes
Summary of the method: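 Guinea pig cortex and cerebellum homogenates in 50 mM Tris pH 7.4 with 10 mM MgCl2, 2 nM [3H]U69,593, 2 h at 25 °C. Unlabeled U50,488 gave the standard curve and nonspecific binding. Filtration on BSA-soaked GF/B filters, scintillation counting; two replicates, repeated twice, mean ± SD.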

[8] = target: T3, delta-opioid receptor (DOR) (Rattus norvegicus, UniProt P33533); experiment: DOR radioligand competition binding assay ([3H]-DPDPE); settings: Delta screening results
T3 construct: Rat cortices were homogenized using 50 mM Tris, pH 7.4, 10 mM MgCl2-6H2O, 200 µM PMSF; from tissue; host or cells: rat cortex membranes
Summary of the method: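 Radioligand was 2 nM [3H]-DPDPE, incubated 2.5 h at 25 °C with homogenized rat cortex (50 mM Tris pH 7.4, 10 mM MgCl2, 200 µM PMSF). Bound ligand separated on GF/B filters and counted; nonspecific binding from unlabeled DPDPE. Values are mean ± SD, two experiments, two replicates each.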

[9] = experiment 1, unit inferred, read-out: Ki (Exp 1)
[10] = experiment 2, unit inferred, read-out: Ki (Exp 2)
[11] = mean of two experiments, read-out: Ki

Cc1cc(O)cc(C)c1C[C@H]1CN([C@@H](Cc2c(C)cc(O)cc2C)CN2C(=N)NC[C@@H]2C)C(=N)N1 [1968-22]
Ki [1, 9]: 7.68 nM
Ki [1, 10]: 7.31 nM
Ki ([1]; mean of Exp 1 and Exp 2, unit inferred, read-out: MEAN (Ki)): 7.49 nM
Ki [1, 11]: 7 nM
acute antinociceptive tolerance (in words) [2]: significant tolerance
ED50 (95% C.I.) of second dose at 8 h ([2]; after ED50 pretreatment at 0 h): 0.18 (0.09–0.32) nmol
effect on respiration rate vs vehicle ([3]; 100 nmol): increases in respiration rates
effect on respiration rate vs vehicle ([3]; 0.3, 1 or 10 nmol): did not have any significant effect
antinociception after oral administration (in words) ([4]; 10 mg/kg, p.o.): significant antinociception
time of peak antinociception after i.c.v. administration ([4]; i.c.v.): 20 min
ED50 (and 95% Confidence Interval (C.I.)) Values, i.c.v. (nmol) ([4]; i.c.v., antinociception at peak response, mice, * ED50 estimated where maximum antinociception not achieved): 0.011 (0.005–0.026) nmol
duration of significant antinociception ([4]; i.c.v., maximum doses tested): 70 min
time detectable / stable in blood after i.v. administration ([5]; 10 mg/kg): at least 30 min
levels in perfused brain by LC-MS/MS ([5]; 10 mg/kg, 5, 15 and 30 min): negligible levels
detection in serum by LC-MS/MS ([5]; 10 mg/kg, within 5 min of administration): readily detected
place conditioning result [6]: no significant preference or aversion
Ki [7, 9]: 195 nM
Ki [7, 10]: 242 nM
Ki [7, 11]: 218 nM
Ki ([8]; first Ki column, unit not printed (apparently M), read-out: Ki (first column)): 260 nM
Ki ([8]; mean of both Ki, unit inferred, read-out: MEAN (Ki)): 265 nM
Ki [8, 11]: 265 nM
Ki ([8]; second Ki column, unit not printed (apparently M), read-out: Ki (second column)): 271 nM
